The record followed here is BindingDB's records for doi:10.1074/jbc.M113.496463 (National Institutes of Health, National Institutes of …, 2013).

The target in experiment [1] is T1, ATP-dependent DNA helicase DinG (Escherichia coli (strain K12), UniProt P27296).
T1 sequence (P27296 whole entry): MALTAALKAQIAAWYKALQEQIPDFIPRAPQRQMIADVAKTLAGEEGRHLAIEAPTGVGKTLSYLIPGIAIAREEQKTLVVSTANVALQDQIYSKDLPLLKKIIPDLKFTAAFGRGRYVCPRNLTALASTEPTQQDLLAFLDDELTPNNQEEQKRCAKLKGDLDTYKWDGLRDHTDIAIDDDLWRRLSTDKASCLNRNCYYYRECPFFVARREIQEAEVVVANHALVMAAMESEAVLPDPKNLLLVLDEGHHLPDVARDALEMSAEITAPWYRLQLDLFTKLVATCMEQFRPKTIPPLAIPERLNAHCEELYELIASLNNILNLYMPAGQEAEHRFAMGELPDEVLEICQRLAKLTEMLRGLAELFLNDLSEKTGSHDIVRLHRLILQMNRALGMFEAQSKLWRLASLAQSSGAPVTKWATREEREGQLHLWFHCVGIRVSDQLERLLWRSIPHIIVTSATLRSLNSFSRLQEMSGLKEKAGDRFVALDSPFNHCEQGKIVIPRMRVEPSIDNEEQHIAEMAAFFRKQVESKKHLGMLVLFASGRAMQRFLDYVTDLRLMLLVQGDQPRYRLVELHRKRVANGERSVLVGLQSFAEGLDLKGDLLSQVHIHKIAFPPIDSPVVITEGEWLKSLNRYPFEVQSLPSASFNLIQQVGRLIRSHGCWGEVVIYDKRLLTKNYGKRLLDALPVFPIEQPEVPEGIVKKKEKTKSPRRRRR
As to the kind of experiment: Helicase Assays. Conditions: pH 8. The protocol:
(§1) Standard helicase reaction mixtures (20μl) containing 5 fmol of the indicated TP-G4 or OX-1-G2' DNA substrates or forked duplex DNA substrate (0.25 nM DNA substrate concentration), 1mM ATP, and the indicated concentrations of the specified helicase were as previously described for FANCJ [Wu et al., Mol. Cell. Biol., 28:4116-4128] and DDX11 [Wu et al., J. Biol. Chem., 287:1007-1021]. Helicase reactions for XPD and DinG were performed in buffer that contained 20mM Tris-HCl (pH 8.0), 10mM KCl, 1mM dithiothreitol, 5mM MgCl2, and 100 μg/ml BSA. Reactions were performed at 37 °C for 15 min in the presence of 1 mM ATP, the DNA substrates mentioned above, and the indicated helicase protein concentrations. Forthe unimolecular Poly(A) Zic1-G4 DNA substrate, helicase reactions were performed in reaction buffer containing a 20-fold excess of peptide-nucleic acid complementary oligonucleotide [Giri et al., Nucleic Acids Res., 39:7161-7178]. G4 helicase reactions were terminated by th

Experiment [2] addresses T2, Fanconi anemia group J protein (Homo sapiens, UniProt Q9BX63).
T2 sequence (Q9BX63 whole entry): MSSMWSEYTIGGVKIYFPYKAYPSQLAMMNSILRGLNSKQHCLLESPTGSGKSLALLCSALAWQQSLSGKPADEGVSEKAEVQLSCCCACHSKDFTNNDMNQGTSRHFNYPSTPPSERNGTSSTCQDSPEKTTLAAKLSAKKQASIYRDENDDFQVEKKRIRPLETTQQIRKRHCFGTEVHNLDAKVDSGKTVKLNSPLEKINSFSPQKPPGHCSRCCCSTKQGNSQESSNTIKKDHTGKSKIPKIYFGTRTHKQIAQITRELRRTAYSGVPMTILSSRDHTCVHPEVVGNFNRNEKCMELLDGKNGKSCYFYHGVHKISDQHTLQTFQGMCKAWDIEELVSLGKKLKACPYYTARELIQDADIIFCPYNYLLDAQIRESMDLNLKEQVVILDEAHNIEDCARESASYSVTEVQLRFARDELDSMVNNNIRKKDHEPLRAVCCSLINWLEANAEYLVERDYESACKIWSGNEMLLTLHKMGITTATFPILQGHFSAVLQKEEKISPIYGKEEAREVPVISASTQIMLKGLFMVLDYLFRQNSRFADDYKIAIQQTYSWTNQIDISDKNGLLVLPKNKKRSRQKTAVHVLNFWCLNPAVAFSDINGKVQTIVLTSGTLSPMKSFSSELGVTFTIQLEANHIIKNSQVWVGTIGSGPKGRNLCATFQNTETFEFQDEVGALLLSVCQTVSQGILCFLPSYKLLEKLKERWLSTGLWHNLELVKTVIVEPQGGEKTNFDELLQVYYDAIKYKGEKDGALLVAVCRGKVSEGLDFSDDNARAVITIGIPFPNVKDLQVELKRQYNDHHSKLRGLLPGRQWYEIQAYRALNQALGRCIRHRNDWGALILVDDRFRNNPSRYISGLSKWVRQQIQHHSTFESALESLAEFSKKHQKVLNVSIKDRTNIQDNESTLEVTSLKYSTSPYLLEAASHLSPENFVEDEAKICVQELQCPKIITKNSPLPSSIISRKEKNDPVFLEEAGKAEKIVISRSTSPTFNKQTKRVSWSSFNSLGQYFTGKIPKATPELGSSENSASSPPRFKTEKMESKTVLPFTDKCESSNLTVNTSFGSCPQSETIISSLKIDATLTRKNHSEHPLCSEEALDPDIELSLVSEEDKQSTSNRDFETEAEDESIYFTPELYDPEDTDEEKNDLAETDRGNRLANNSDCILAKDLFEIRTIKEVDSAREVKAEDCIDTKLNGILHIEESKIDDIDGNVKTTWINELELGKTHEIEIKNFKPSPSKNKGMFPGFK
As to the kind of experiment: Helicase Assays. Conditions: pH 8. The procedure: as §1

Where “and” joins values, the source holds several entries; their conditions need not be identical. Identical values can stand only once.

For the compound `C[n+]1cc(NC(=O)c2ccc3ccc4ccc(C(=O)Nc5cc6ccccc6[n+](C)c5)nc4c3n2)cc2ccccc21`, the IC50 in experiment [1] is 50 nM and 130 nM.

On to `Cc1oc2nc1-c1nc(co1)-c1nc(co1)-c1nc(co1)-c1nc(co1)-c1nc(co1)C1=NC(CS1)c1nc-2c(C)o1` (stereo unspecified) [Telomestatin (TMS)], for which the IC50 in experiment [1] is 1.5 nM and 1 nM; in experiment [2], 2.2 nM and 1.9 nM and 2 nM.

`C[n+]1ccc(-c2c3nc(c(-c4cc[n+](C)cc4)c4ccc([nH]4)c(-c4cc[n+](C)cc4)c4nc(c(-c5cc[n+](C)cc5)c5ccc2[nH]5)C=C4)C=C3)cc1`: the IC50 was 1100 nM and 1200 nM in experiment [1]; 2300 nM and 2900 nM and 4900 nM in experiment [2].

Turning to `C[n+]1cccc2cc(NC(=O)c3ccc4ccc5ccc(C(=O)Nc6ccc7c(ccc[n+]7C)c6)nc5c4n3)ccc21` [Phen-DC6], the IC50 in experiment [1] was 60 nM and 55 nM.
